Here are results for eight compounds from ChEMBL document CHEMBL1201862, “PubChem BioAssay data set” (2004).

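Briefly, cells in 96-well plates were exposed to five compound concentrations for 48 h, and endpoints were estimated by linear interpolation. GI50: concentration for 50% inhibition of growth.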 Activity calls are given as the source filed them. No stated cut-off is given here; in the data, active = GI50 up to about 1.1 µM and inactive = higher. Bounds are passed on as bounds.

What all share (experiment): NCI-60 cell line screen, 48 h
The test system of assay [1] is MOLT-4.
Assay [2] deals with MDA-N.
Assay [3] relates to M14.
For assay [4], the system named is SF-295.
In assay [5] the test system is Hs-578T.
Assay [6] concerns A549.
Assay [7] deals with UACC-62.
Assay [8] relates to SF-268.
Assay [9] concerns BT-549.
Assay [10] relates to SR.
For assay [11], the system named is HCT-15.
Assay [12] relates to SK-OV-3.
Assay [13] deals with SK-MEL-5.
Assay [14] concerns NCI-H460.
The subject of assay [15] is SW-620.
The test system of assay [16] is A498.
Assay [17] relates to CAKI-1.
Assay [18] relates to 786-0.
In assay [19] the test system is SF-539.

For the compound `CNC1C(O)C(OC2C(N)CC(N)C(OC3OC(CN)=CCC3N)C2O)OCC1(C)O` (configuration not stated), the GI50 in [1], in assay [2], in assay [3], in assay [4], in assay [5] and in [6] was > 100 µM (inactive) throughout. The GI50 in assay [7] is > 100 µM (inactive); in assay [8] it was > 100 µM (inactive); in assay [9], > 100 µM (inactive); in assay [10] it was > 100 µM (inactive); in assay [11] it was greater than 100 µM; in assay [12] it was > 100 µM (inactive). Further, the GI50 in [13], in [14], in assay [15], in [16], in assay [17] and in [18] was > 100 µM (inactive) each time. The GI50 in assay [19] is > 100 µM (inactive).

For the compound `COC(=O)/C=C\[C@@H]1[C@H](C)N1S(=O)(=O)c1ccc(C)cc1` (some centres not stated), the GI50 in [1], in assay [2], in [3], in assay [4], in [5] and in assay [6] was > 100 µM (inactive) each time. The GI50 in assay [7] was > 100 µM (inactive); in assay [8] it was > 100 µM (inactive); in [9], > 100 µM (inactive); in assay [10], > 100 µM (inactive); in assay [11] it was greater than 100 µM; in assay [12] it was > 100 µM (inactive). The GI50 in [13], in assay [14], in [15], in assay [16], in [17] and in assay [18] was > 100 µM (inactive) in each case. In assay [19], the GI50 was > 100 µM (inactive).

Take `COc1ccc(-c2[nH]c3c4c(nc5c(c24)C(=O)CC(C)(C)C5)CC(C)(C)C3)cc1`: the GI50 in assay [1] was 7.03 µM (inactive); in [2] it was 47.4 µM (inactive); in assay [3] it was > 100 µM (inactive); in [4], 57.4 µM (inactive); in assay [5] it was 93.1 µM (inactive); in [6] it was 62.4 µM (inactive). For the same compound, the GI50 is > 100 µM (inactive) in [7]; 95.5 µM (inactive) in assay [8]; 43.9 µM (inactive) in assay [9]; 13.2 µM (inactive) in assay [10]; 54.2 µM in assay [11]; > 100 µM (inactive) in assay [12]. The GI50 in assay [13] was 63.1 µM (inactive); in assay [14], 72.3 µM (inactive); in assay [15], > 100 µM (inactive); in assay [16], 28.6 µM (inactive); in [17], 70.5 µM (inactive); in assay [18], 32.2 µM (inactive). In addition, in assay [19], the GI50 is 67.6 µM (inactive).

With `COC(=O)CCSC1=CC(=O)c2nc3ccccc3c3ccnc1c23`, the GI50 in [1] was 9.95 µM (inactive); in [2], 28 µM (inactive); in assay [3], 21.9 µM (inactive); in assay [4], 58.7 µM (inactive); in [5], 23.4 µM (inactive); in assay [6] it was > 93.1 µM (inactive). For the same compound, the GI50 in assay [7] was 8.09 µM (inactive); in [8], 15.1 µM (inactive); in [9], 17.7 µM (inactive); in [10] it was 5.32 µM (inactive); in assay [11], 13.6 µM; in [12], 54.3 µM (inactive). The GI50 in [13] is 18.8 µM (inactive); in [14], 16.1 µM (inactive); in [15], 22.2 µM (inactive); in assay [16] it was > 84.7 µM (inactive); in [17], 18.8 µM (inactive); in assay [18], 19.9 µM (inactive). For the same compound, the GI50 in [19] was 15.7 µM (inactive).

In the case of `COC(=O)/C=C(\C(=O)OC)c1cc(C)c2cc(C(C)C)ccc(C)c1-2`, the GI50 in assay [1] was > 100 µM (inactive); in [2], 19.5 µM (inactive); in [3], 23.5 µM (inactive); in [4] it was 41.7 µM (inactive); in [5], 42.7 µM (inactive); in [6], 28.2 µM (inactive). The GI50 was 32.2 µM (inactive) in assay [7]; > 100 µM (inactive) in assay [8]; 39.6 µM (inactive) in assay [9]; > 100 µM (inactive) in [10]; 11.7 µM in assay [11]; 85.9 µM (inactive) in assay [12]. Moreover, the GI50 in assay [13] is 25.6 µM (inactive); in assay [14], 40.7 µM (inactive); in assay [15] it was 34 µM (inactive); in assay [16] it was > 100 µM (inactive); in assay [17], 47.9 µM (inactive); in [18], 75.5 µM (inactive). For the same compound, in assay [19], the GI50 is 30.5 µM (inactive).

For `CCOC(=O)c1cc(C2CCN(CC(C)CC)C2=S)c(-c2cc(C)no2)[nH]1` (configuration not stated), the GI50 in [1] is 44.1 µM (inactive); in assay [2], > 100 µM (inactive); in assay [3] it was > 100 µM (inactive); in assay [4] it was > 100 µM (inactive); in assay [5], 89.7 µM (inactive); in assay [6], 51.4 µM (inactive). In addition, the GI50 was 72.3 µM (inactive) in assay [7]; 69.3 µM (inactive) in assay [8]; 83.9 µM (inactive) in [9]; 56.5 µM (inactive) in assay [10]; greater than 100 µM in assay [11]; > 100 µM (inactive) in [12]. For the same compound, the GI50 in [13] is 48.4 µM (inactive); in assay [14], > 100 µM (inactive); in assay [15] it was > 100 µM (inactive); in assay [16], > 100 µM (inactive); in [17] it was > 100 µM (inactive); in [18], > 100 µM (inactive). Moreover, in assay [19], the GI50 is > 100 µM (inactive).

For the compound `CCCOc1cc2c(cc1O)CC[C@@H]1[C@@H]2CC[C@]2(C)[C@@H](O)CC[C@@H]12`, the GI50 in assay [1] is 0.946 µM (active); in assay [2], 0.22 µM (active); in assay [3], 1.8 µM (inactive); in assay [4], 2.76 µM (inactive); in assay [5], 1.55 µM (inactive); in assay [6], 2.99 µM (inactive). The GI50 was 1.2 µM (inactive) in [7]; 6.3 µM (inactive) in assay [8]; 0.524 µM (active) in assay [9]; 0.209 µM (active) in assay [10]; 0.687 µM in assay [11]; 3.04 µM (inactive) in assay [12]. Further, the GI50 in assay [13] is 2.12 µM (inactive); in assay [14], 1.62 µM (inactive); in assay [15] it was 1 µM (active); in [16] it was 5.37 µM (inactive); in assay [17], 2.81 µM (inactive); in assay [18], 3.63 µM (inactive). The GI50 in [19] is 1.48 µM (inactive).

Turning to `COC(=O)c1c(C)ccc2c(O)c3c(cc12)C(=O)c1c2c(cc(O)c1C3=O)C1(C)OC(C)(O2)C(O)C(N(C)C)C1O` (configuration not stated), the GI50 in assay [1] was 0.543 µM (active); in assay [2], 1.45 µM (inactive); in [3] it was 1.85 µM (inactive); in [4], 1.81 µM (inactive); in [5] it was 1.86 µM (inactive); in assay [6], 1.28 µM (inactive). The GI50 is 1.66 µM (inactive) in assay [7]; 1.05 µM (active) in assay [8]; 3.61 µM (inactive) in assay [9]; 0.294 µM (active) in assay [10]; 1.46 µM in assay [11]; 3.33 µM (inactive) in [12]. Moreover, the GI50 in assay [13] is 8.38 µM (inactive); in [14] it was 0.681 µM (active); in assay [15] it was 0.869 µM (active); in [16], 1.57 µM (inactive); in assay [17] it was 1.91 µM (inactive); in [18] it was 0.767 µM (active). In addition, the GI50 in assay [19] is 2.21 µM (inactive).
